# Experimental data reported in patent US20120309087A1, “CANCER THERAPY” (University Court of The University of Dundee, priority 2006, published 2012).
# Values joined by “and” are separate entries in the source; they are usually repeats but may differ in a detail not shown here. Equal values may be shown once.
# What was measured:
# [1] = tested on: AKR1C1 and NQO1 mRNA in Caco-2 cells; assay: AKR1C1 and NQO1 mRNA in Caco-2 cells (TaqMan); format: cell-based, human; settings: sulforaphane 5 μM + BTB09463 5 μM, 24 hrs
# Protocol: (§1) Method: AREc32 cells were seeded out in 96 well plates and treated with DMSO (control), tBHQ (50 μM), tBHQ+BTB09463 (5 μM) or tBHQ+Retinoic acid (1 μM). After 24 hours incubation, cells were washed and lysed before measuring luciferase activity. BTB09463 is 1-{4-[(3,4-dichlorobenzyl)oxy]phenyl}ethan-1-one. […] Method: AREc32 cells were seeded out in 96 well plates and dosed with BTB09463 (2.5, 5 or 10 μM) for 0, 24 or 48 hrs before treatment with tBHQ (50 μM). 24 hours after the addition of tBHQ, cells were washed and lysed before measuring luciferase activity. […] Method: ARE c32 cells were seeded out in 96 well plates and treated with DMSO (control), tBHQ (50 μM), tBHQ+retinoid (0.25, 0.5 and 1 μM). After 24 hours incubation, cells were washed and lysed before measuring luciferase activity. […] See FIG. 16 Method: A. Caco-2 cells were treated with the known ARE-gene inducer sulforaphane (5 μM), either alone or concomitantly with BTB09463 (5 μM) or Retinoic acid (1 μM). After 24 hrs, cell lysates were prepared and Western blotting performed to measure the levels of AKR1C protein. B. MCF7 cells were treated with sulforaphane (5 μM), either alone or concomitantly with BTB09463 (5 μM). After 24 hrs, cell lysates were prepared and Western blots performed to detect the levels of AKR1C and NQO1; GAPDH was used as a loading control in MCF7 cells. […] Method: Caco-2 cells were treated with DMSO (control), BTB09463 (5 μM), sulforaphane (5 μM) or a combination of sulforaphane plus BTB09463. After 24 hrs treatment, cells were harvested and RNA isolated. cDNA for each sample was generated by reverse transcription and subsequently used in real time PCR analysis of gene transcription (TaqMan analysis) for the ARE-driven genes AKR1C1 and NQO1. Data was normalised to the internal control 18S RNA and the relative levels of AKR1C1 and NQO1 calculated using the comparative CT method. […] Method: MCF7 cells were treated with the known ARE-gene inducer sulforaphane (5 μM), either alone or with various retinoids (0.5 μM). After 24 hrs, cell lysates were prepared and Western blots were performed to detect the levels of AKR1C protein present. […] See FIG. 19 Method: ARE reporter cell line AREc23 was seeded into 96 well plates and treated with a previously determined non-toxic concentration of cytotoxic drug. After 24 hours incubation, cells were washed and lysed before measuring luciferase activity. […] See FIG. 20a Method: ARE reporter cell line AREc23 was seeded into 96 well plates and treated with DMSO (control), Carmustine (100 μM), Carmustine+BTB09463 (5 μM) or Carmustine+Retinoic acid (5 μM) After 24 hours incubation, cells were washed and lysed before measuring luciferase activity. […] After 24 hours incubation, cells were washed and lysed before measuring luciferase activity. […]
# [2] = tested on: AKR1C and NQO1 protein in MCF7 cells; assay: AKR1C and NQO1 protein in MCF7 cells (Western blots); format: cell-based, human; settings: 24 hrs
# Protocol: Method: AREc32 cells were seeded out in 96 well plates and treated with DMSO (control), tBHQ (50 μM), tBHQ+BTB09463 (5 μM) or tBHQ+Retinoic acid (1 μM). After 24 hours incubation, cells were washed and lysed before measuring luciferase activity. BTB09463 is 1-{4-[(3,4-dichlorobenzyl)oxy]phenyl}ethan-1-one. […] Method: AREc32 cells were seeded out in 96 well plates and dosed with BTB09463 (2.5, 5 or 10 μM) for 0, 24 or 48 hrs before treatment with tBHQ (50 μM). 24 hours after the addition of tBHQ, cells were washed and lysed before measuring luciferase activity. […] Method: ARE c32 cells were seeded out in 96 well plates and treated with DMSO (control), tBHQ (50 μM), tBHQ+retinoid (0.25, 0.5 and 1 μM). After 24 hours incubation, cells were washed and lysed before measuring luciferase activity. […] See FIG. 16 Method: A. Caco-2 cells were treated with the known ARE-gene inducer sulforaphane (5 μM), either alone or concomitantly with BTB09463 (5 μM) or Retinoic acid (1 μM). After 24 hrs, cell lysates were prepared and Western blotting performed to measure the levels of AKR1C protein. B. MCF7 cells were treated with sulforaphane (5 μM), either alone or concomitantly with BTB09463 (5 μM). After 24 hrs, cell lysates were prepared and Western blots performed to detect the levels of AKR1C and NQO1; GAPDH was used as a loading control in MCF7 cells. […] Method: Caco-2 cells were treated with DMSO (control), BTB09463 (5 μM), sulforaphane (5 μM) or a combination of sulforaphane plus BTB09463. After 24 hrs treatment, cells were harvested and RNA isolated. cDNA for each sample was generated by reverse transcription and subsequently used in real time PCR analysis of gene transcription (TaqMan analysis) for the ARE-driven genes AKR1C1 and NQO1. Data was normalised to the internal control 18S RNA and the relative levels of AKR1C1 and NQO1 calculated using the comparative CT method. […] Method: MCF7 cells were treated with the known ARE-gene inducer sulforaphane (5 μM), either alone or with various retinoids (0.5 μM). After 24 hrs, cell lysates were prepared and Western blots were performed to detect the levels of AKR1C protein present. […] See FIG. 19 Method: ARE reporter cell line AREc23 was seeded into 96 well plates and treated with a previously determined non-toxic concentration of cytotoxic drug. After 24 hours incubation, cells were washed and lysed before measuring luciferase activity. […] See FIG. 20a Method: ARE reporter cell line AREc23 was seeded into 96 well plates and treated with DMSO (control), Carmustine (100 μM), Carmustine+BTB09463 (5 μM) or Carmustine+Retinoic acid (5 μM) After 24 hours incubation, cells were washed and lysed before measuring luciferase activity. […] After 24 hours incubation, cells were washed and lysed before measuring luciferase activity. B. Modified repeat of experiment A, with cells being pretreated with L-buthionine-(SR)-sulfoximine (BSO), an inhibitor of enzymes in the glutathione synthesis pathway. After 24 hours incubation, cells were washed and lysed before measuring luciferase activity. […] Method: Caco-2 cells were treated for 24 hrs with DMSO (control), Carmustine (100 μM), Carmustine+BTB09463 (5 μM). After 24 hrs, cell lysates were prepared and Western blots to detect the levels of AKR1C. […] Method: MCF7 cells were treated for 24 hrs with DMSO (control; Lane 1), Sulforaphane (5 μM) (Lane 2), Carmustine (100 μM) (Lane 3), Carmustine+BTB09463 (5 μM) (Lane 5). (Lane 4 represents experimental conditions irrelevant to the application). After 24 hrs, cell lysates were prepared and Western blots to detect the levels of Nrf2, NQO1 and AKR1C proteins.
# MCF7 cells = assay: cells; format: cell-based; settings: Homo sapiens, single agent
# A549 cells = assay: Cytotoxicity in A549 cells (ATP levels, 72 h); format: cell-based, human; settings: Homo sapiens, single agent
# [3] = tested on: AKR1C1, NQO1, GCLC, GCLM mRNA in A549 cells; assay: Constitutive mRNA of ARE-driven genes in A549 cells (Taqman); format: cell-based, human; settings: 24 hrs
# [4] = tested on: ARE-driven luciferase activity in AREc32 cells; assay: Antagonism of induced ARE-driven luciferase activity in AREc32 cells; format: cell-based, human
# [5] = tested on: AKR1C protein in LS174 cells; assay: AKR1C protein in LS174 cells; format: cell-based, human; settings: data not shown
# [6] = tested on: AKR1C protein in Caco-2 cells; assay: AKR1C protein in Caco-2 cells (Western blotting); format: cell-based, human; settings: 24 hrs
# Protocol: as §1
# [7] = tested on: ARE reporter system in HepG2 cells; assay: Transient pGL-GSTA2.41bp-ARE luciferase reporter in HepG2 cells; settings: 50 μM tBHQ
# Protocol: (§2) The Dual-luciferase Reporter Assay System (Promega) was used to examine reporter gene activity in transiently transfected cells. Briefly, cells were seeded at a density of 2×10^5 cells/well in 24-well plates and grown in the appropriate medium. After overnight incubation, the cells were transiently transfected with various ARE-luciferase reporter plasmids. The plasmid pRL-TK, encoding Renilla luciferase was used to control for transfection efficiency. Transfections were performed using Lipofectamine 2000 Reagent (Lifer Technologies Inc. Ltd., Coventry, UK) according to the manufacture's instructions. Following transfection, the culture medium was replaced 24 h later with fresh growth medium containing 50 μM tBHQ (in a solution giving a final concentration of 0.1% v/v dimethyl sulfoxide (DMSO)), which was prepared immediately before each experiment. For control experiments, vehicle alone (0.1% v/v DMSO) was added to the growth medium. Cells were left for 24 h to respond to xenobiotics before being harvested and the firefly and Renilla luciferase activities in cell lysates were measured using a luminometer (Turner Designs Model TD-20/20, Promega) following addition of Luciferase Assay Reagent II (Promega). […] The relative luciferase activity was calculated by normalizing firefly luciferase activity to that of Renilla luciferase. […]
# [8] = tested on: AKR1C mRNA in AREc32 cells; assay: AKR1C mRNA in AREc32 cells (TaqMan); settings: 10 μM tBHQ, 24 h
# [9] = tested on: ARE-green fluorescent protein (GFP) reporter HepG2 cell line; settings: 90 μM tBHQ; HepG2/GFP-B; cited from earlier work
# [10] = tested on: ARE reporter system in MCF7 cells; assay: Transient pGL-GSTA2.41bp-ARE luciferase reporter in MCF7 cells
# Protocol: The Dual-luciferase Reporter Assay System (Promega) was used to examine reporter gene activity in transiently transfected cells. Briefly, cells were seeded at a density of 2×10^5 cells/well in 24-well plates and grown in the appropriate medium. After overnight incubation, the cells were transiently transfected with various ARE-luciferase reporter plasmids. The plasmid pRL-TK, encoding Renilla luciferase was used to control for transfection efficiency. Transfections were performed using Lipofectamine 2000 Reagent (Lifer Technologies Inc. Ltd., Coventry, UK) according to the manufacture's instructions. Following transfection, the culture medium was replaced 24 h later with fresh growth medium containing 50 μM tBHQ (in a solution giving a final concentration of 0.1% v/v dimethyl sulfoxide (DMSO)), which was prepared immediately before each experiment. For control experiments, vehicle alone (0.1% v/v DMSO) was added to the growth medium. Cells were left for 24 h to respond to xenobiotics before being harvested and the firefly and Renilla luciferase activities in cell lysates were measured using a luminometer (Turner Designs Model TD-20/20, Promega) following addition of Luciferase Assay Reagent II (Promega). After quenching the reaction, the Renilla luciferase reaction was initiated by adding Stop & Glo Reagent (Promega). The relative luciferase activity was calculated by normalizing firefly luciferase activity to that of Renilla luciferase.
# In order to choose an appropriate cell system for the generation of a stable reporter cell line, pGL-GSTA2.41 bp-ARE was transfected into HepG2, MCF7, CHO, Hepa1 cells.
# [11] = tested on: ARE-driven luciferase activity in AREc32 cells; assay: Induction of ARE-driven luciferase activity in stable AREc32 reporter cells; format: cell-based, human
# [12] = tested on: ARE reporter system in CHO cells; assay: Transient pGL-GSTA2.41bp-ARE luciferase reporter in CHO cells; settings: 50 μM tBHQ
# Protocol: as §2
# [13] = tested on: ARE reporter system in Hepa1 cells; assay: Transient pGL-GSTA2.41bp-ARE luciferase reporter in Hepa1 cells; settings: 50 μM tBHQ
# Protocol: as §2
# [14] = Carmustine 100 μM + BTB09463 5 μM
# [15] = HepG2 cells treated with DMSO set at 1
compound,measurement,setting,value
"CC(=O)c1ccc(OCc2ccc(Cl)c(Cl)c2)cc1 [BTB09463, 1-{4-[(3,4-dichlorobenzyl)oxy]phenyl}ethan-1-one]",reduction of sulforaphane-induced AKR1C1 mRNA,[1],50%
same,sulforaphane-induced NQO1 mRNA expression,[1],reduced to basal levels
same,carmustine over expression of AKR1C and NQO1 protein,[2]; [14],attenuated
same,sulforaphane-driven induction of NQO1 and AKR1C protein,[2]; sulforaphane 5 μM + BTB09463 5 μM,potently inhibited
same,IC50,MCF7 cells,28 µM
same,IC50,A549 cells,52 µM
same,constitutive expression of AKR1C1 mRNA,"[3]; BTB09463 1, 5, 20, 40 μmol/l or retinoids 0.050, 0.20, 0.50, 2.0 μmol/l",inhibited the constitutive expression of AKR1C1 in a concentration-dependent manner
same,"constitutive mRNA levels of NQO1, GCLC and GCLM",[3]; BTB09463 1-40 μmol/l or retinoic acid 0.050-2.0 μmol/l,"repressed the constitutive mRNA levels of NQO1, GCLC and GCLM in a concentration-dependent manner"
same,suppression of tBHQ induction of luciferase,"[4]; 50 μM tBHQ + 5 μM BTB09463, 24 h",approximately 65%
same,"suppression of tBHQ-mediated induction of luciferase expression, by dosing regimen","[4]; BTB09463 2.5, 5 or 10 μM for 0, 24 or 48 hrs before 50 μM tBHQ",identical under each dosing regimen
same,carmustine-mediated induction of luciferase activity,"[4]; Carmustine 100 μM + BTB09463 5 μM or Retinoic acid 5 μM, 24 hours",completely suppress
same,carmustine induction of AKR1C protein,[5],reproduced in LS174 cells
same,carmustine induction of AKR1C protein,[6]; [14],attenuated
same,sulforaphane induction of AKR1C protein,"[6]; sulforaphane 5 μM, BTB09463 5 μM or Retinoic acid 1 μM",dramatically reduced
"CC(C)(C)c1cc(O)ccc1O [tBHQ, tert-butylhydroquinone]",Ratio (tBHQ/DMSO),[7],2.8 ± 0.9
same,Relative luciferase activity (tBHQ treated),[7]; [15],2.8 ± 0.9
same,induction of AKR1C1 mRNA,[8],approximately 15 fold
same,maximal increase of GFP reporter,[9],3 fold
same,Ratio (tBHQ/DMSO),[10]; 50 μM tBHQ,52.0 ± 11.9
same,Relative luciferase activity (tBHQ treated),"[10]; 50 μM tBHQ, HepG2 cells treated with DMSO set at 1",2276.1 ± 521.1
same,induction of luciferase activity,[10]; overnight treatment with 50 μM tBHQ,up to 50 fold
same,increase of luciferase activity,"[11]; 1 μM tBHQ, 24 h",2 fold
same,increase of luciferase activity,"[11]; 5 μM tBHQ, 24 h",5 fold
same,lag phase before increase of luciferase activity,[11]; 10 μM tBHQ alone,approximately 3 hour
same,increase of luciferase activity,"[11]; 10 μM tBHQ, 8 h",4 fold
same,increase of luciferase activity,"[11]; 10 μM tBHQ, 18 h",10 fold
same,induction of luciferase activity,"[11]; 10 μM tBHQ, 50 ng pRS-hNrf2 DNA per well (Nrf2 RNAi)",8 fold
same,induction of luciferase activity,"[11]; 10 μM tBHQ, 100 ng pRS-hNrf2 DNA per well (Nrf2 RNAi)",6 fold
same,induction of luciferase activity,"[11]; 10 μM tBHQ, control cells, no DNA in the transfection mix",13 fold and 10 fold
same,inducible level of luciferase activity,"[11]; 10 μM tBHQ, transfection with 50 ng pHyg-EF-hNrf2 per well",19 fold
same,inducible level of luciferase activity,"[11]; 10 μM tBHQ, transfection with 100 ng pHyg-EF-hNrf2",25 fold
same,induction of luciferase expression compared to DMSO control,"[11]; 50 μM tBHQ, 24 h",14 fold
same,"CD, concentration of inducting agent that doubled luciferase reporter activity","[11]; AREc32, 24 h, DMSO set at 1",1 µM
same,Ratio (tBHQ/DMSO),[12],2.7 ± 0.1
same,Relative luciferase activity (tBHQ treated),[12]; [15],1171.6 ± 8.8
same,Ratio (tBHQ/DMSO),[13],3.6 ± 0.5
same,Relative luciferase activity (tBHQ treated),[13]; [15],140.7 ± 19.6
